From patent US10590064B2, “Crystals of alanine N-acetic acid precursors, process to prepare them and their use” (NOURYON CHEMICALS INTERNATIONAL B.V., priority 2014, dated 2020)

Experiments:
Format in all cases: physicochemical
[1] = pH of 1 wt % in water
Protocol: Additionally the pH was measured as 1 wt % D,L-alanine diacetonitrile in water and this pH was compared to the pH of 1 wt % […].

[2] = Solubility of D,L-alanine diacetonitrile crystals in demi-water at various temperatures; details: overnight
Protocol: (§1) The solubility of D,L-alanine diacetonitrile was determined at various temperatures to get a clear understanding of the solubility and stability of D,L-alanine diacetonitrile. The D,L-alanine diacetonitrile crystals obtained in Example 1 were added to demi-water and the samples in well-closed bottles were placed in ovens/refrigerators at various temperatures overnight.

[3] = Stability (hydrolysis) of D,L-alanine diacetonitrile in water, aqueous layers analyzed by NMR; details: demi-water, closed bottles, overnight at various temperatures
Protocol: as §1

Compound	pH (1% in water) [1]	Solubility, wt % D,L-alanine diacetonitrile ([2]; 0° C.)	Solubility, wt % D,L-alanine diacetonitrile ([2]; 5° C.)	Solubility, wt % D,L-alanine diacetonitrile ([2]; 20° C.)	Solubility, wt % D,L-alanine diacetonitrile ([2]; 30° C.)	Solubility, wt % D,L-alanine diacetonitrile ([2]; 40° C.)	Solubility, wt % D,L-alanine diacetonitrile ([2]; 50° C.)	Hydrolysis of D,L-alanine diacetonitrile in aqueous layer (NMR) [3]
CC(C(=O)[O-])N(CC#N)CC#N.[Na+] (racemic) [D,L-alanine diacetonitrile-Na, sodium salt of D,L-alanine diacetonitrile]	pH = 3.3.	–	–	–	–	–	–	–
D,L-alanine diacetonitrile	pH = 2.2	6 wt %	7.9 wt %	40.7 wt %	75 wt %	82.5 wt %	95 wt %	no or very little hydrolysis took place
